In patent US20090124598A1, “PHARMACEUTICAL USE OF SUBSTITUTED AMIDES” (priority 2005, published 2009):

target: T1, h-11βHSD1 (Homo sapiens, UniProt P28845); experiment: 11βHSD1 enzyme assay (SPA); assay type: biochemical; details: extract of yeast transformed with h-11βHSD1; 120 nM 3H-cortisone, 60 min at 30° C., pH=7.4; read-out: Inhibition of 11βHSD1, h-11βHSD1 IC50 values
T1 construct: made in house
Description: 3H-cortisone and anti-rabbit Ig coated scintillation proximity assay (SPA) beads were purchased from Amersham Pharmacia Biotech, P-NADPH was from Sigma and rabbit anticortisol antibodies were from Fitzgerald. An extract of yeast transformed with h-11βHSD1 (Hult et al., FEBS Lett., 441, 25 (1998)) was used as the source of enzyme. The test compounds were dissolved in DMSO (10 mM). All dilutions were performed in a buffer containing 50 mM TRIS-HCl (Sigma Chemical Co), 4 mM EDTA (Sigma Chemical Co), 0.1% BSA (Sigma Chemical Co), 0.01% Tween-20 (Sigma Chemical Co) and 0.005% bacitracin (Novo Nordisk A/S), pH=7.4. Optiplate 96 wells plates were supplied by Packard. The amount of 3H-cortisol bound to the SPA beads was measured on TopCount NXT, Packard.
h-11βHSD1, 120 nM 3H-cortisone, 4 mM β3-NADPH, antibody (1:200), serial dilutions of test compound and SPA particles (2 mg/well) were added to the wells. The reaction was initiated by mixing the different components and was allowed to proceed under shaking for 60 min at 30° C. The reaction was stopped be the addition of 10 fold excess of a stopping buffer containing 500 μM carbenoxolone and 1 μM cortisone. Data was analysed using GraphPad Prism software.

T1 sequence (P28845 whole entry): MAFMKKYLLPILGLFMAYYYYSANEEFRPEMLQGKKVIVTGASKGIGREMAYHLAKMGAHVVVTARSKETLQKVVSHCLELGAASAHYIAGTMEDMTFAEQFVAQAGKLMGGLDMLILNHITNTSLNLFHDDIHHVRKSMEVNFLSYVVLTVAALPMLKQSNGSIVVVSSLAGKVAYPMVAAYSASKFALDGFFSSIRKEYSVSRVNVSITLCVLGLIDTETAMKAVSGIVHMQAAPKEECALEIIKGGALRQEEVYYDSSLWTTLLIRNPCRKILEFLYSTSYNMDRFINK

| IC50 | Structure (SMILES) |
| --- | --- |
| 19 nM | CN(Cc1ccc(C(=O)N2CC3(C)CC2CC(C)(C)C3)cc1)C(=O)c1ccc(S(C)(=O)=O)cc1 (stereo not drawn) [Example 1-28, 4-Methanesulfonyl-N-methyl-N-[4-(1,3,3-trimethyl-6-aza-bicyclo[3.2.1]octane-6-carbonyl)-benzyl]-benzamide] |
| 10 nM | CC(C)N(Cc1ccc(C(=O)N2CC3(C)CC2CC(C)(C)C3)cc1)S(=O)(=O)C(F)(F)F (stereo not drawn) [Example 2-5, Trifluoro-N-isopropyl-N-[4-(1,3,3-trimethyl-6-aza-bicyclo[3.2.1]octane-6-carbonyl)-benzyl]-methanesulfonamide] |
| 500 nM | COC(=O)CN(C)C(=O)N(C)Cc1ccc(C(=O)N2CC3(C)CC2CC(C)(C)C3)cc1 (stereo not drawn) [Example 3-8, {1,3-Dimethyl-3-[4-(1,3,3-trimethyl-6-aza-bicyclo[3.2.1]octane-6-carbonyl)-benzyl]-ureido}-acetic Acid Methyl Ester] |
